Toxic doses and inconclusive results are not listed. No stated cut-off is given here; in the data, active means T/C of 150% or more; inactive means T/C below 125%.
Tested on: L1210 leukemia ip in BDF1 mice, survival T/C
Experiment: NCI In Vivo Anticancer Drug Screen. Data for tumor model L1210 Leukemia (intraperitoneal) in B6D2F1 (BDF1) mice
Conditions: endpoint: mean survival time, higher = longer survival
Method in brief: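 Tumor was transplanted into mice, which were then dosed with test compound or vehicle alone. Survival was recorded for each group, and the treated figure was expressed relative to the control figure.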

[1] = dose: 12.5 mg/kg/injection, schedule: Q04DX003 (ip), vehicle: Klucel (hydroxypropylcellulose) (HPC)
[2] = dose: 25.0 mg/kg/injection, schedule: Q04DX003 (ip), vehicle: Klucel (hydroxypropylcellulose) (HPC)
[3] = dose: 50.0 mg/kg/injection, schedule: Q04DX003 (ip), vehicle: Klucel (hydroxypropylcellulose) (HPC)
[4] = dose: 100.0 mg/kg/injection, schedule: Q04DX002 (ip), vehicle: saline with Tween-80
[5] = dose: 200.0 mg/kg/injection, schedule: Q04DX002 (ip), vehicle: saline with Tween-80
[6] = dose: 400.0 mg/kg/injection, schedule: Q04DX002 (ip), vehicle: saline with Tween-80
[7] = dose: 100.0 mg/kg/injection, schedule: Q04DX003 (ip), vehicle: saline
[8] = dose: 100.0 mg/kg/injection, schedule: Q04DX003 (ip), vehicle: saline with Tween-80
[9] = dose: 200.0 mg/kg/injection, schedule: Q04DX003 (ip), vehicle: saline with Tween-80
[10] = dose: 400.0 mg/kg/injection, schedule: Q04DX003 (ip), vehicle: saline with Tween-80
[11] = dose: 100.0 mg/kg/injection, schedule: Q01DX001 (ip), vehicle: saline
[12] = dose: 200.0 mg/kg/injection, schedule: Q01DX001 (ip), vehicle: saline
[13] = dose: 400.0 mg/kg/injection, schedule: Q01DX001 (ip), vehicle: saline
[14] = dose: 50.0 mg/kg/injection, schedule: Q01DX009 (ip), vehicle: saline with Tween-80
[15] = dose: 100.0 mg/kg/injection, schedule: Q01DX009 (ip), vehicle: saline with Tween-80
[16] = dose: 200.0 mg/kg/injection, schedule: Q01DX009 (ip), vehicle: saline with Tween-80

Measured: T/C

c1cc[c]([Sn]([S]c2nc3ccccc3s2)([c]2ccccc2)[c]2ccccc2)cc1
inactive: dose: 5.0 mg/kg/injection, schedule: Q04DX002 (ip), vehicle: saline with Tween-80 104 % of control | dose: 10.0 mg/kg/injection, schedule: Q04DX002 (ip), vehicle: saline with Tween-80 97 % of control | dose: 20.0 mg/kg/injection, schedule: Q04DX002 (ip), vehicle: saline with Tween-80 97 % of control

C=C/C=C/CCN1CC1
inactive: [1] 114 % of control | [2] 112 % of control | [3] 106 % of control

CCCC(=O)N1CCCCCC1
inactive: [4] 92 % of control | [5] 113 % of control | [6] 95 % of control

CN(C)P1(=O)OCC(C(C)(C)C)CO1 (centres undefined)
inactive: [7] 112 % of control

CCCCCCCc1ccc(C(C)=O)cc1
inactive: [8] 100 % of control | dose: 132.0 mg/kg/injection, schedule: Q04DX003 (ip), vehicle: saline with Tween-80 97 % of control | [9] 101 % of control | dose: 300.0 mg/kg/injection, schedule: Q04DX003 (ip), vehicle: saline with Tween-80 93 % of control | [10] 108 % of control

O=S(=O)(c1ccc(Cl)cc1)C1CCCC1Cl (centres undefined)
inactive: [11] 110 % of control | [12] 109 % of control | [13] 100 % of control

CCOC(=O)c1cc(Br)cc(Br)c1N=NN(C)C
inactive: [14] 105 % of control | [15] 113 % of control | [16] 105 % of control

O=C1OC2C3C=CC(CC3)C2O1 (centres undefined)
inactive: dose: 7.5 mg/kg/injection, schedule: Q04DX002 (ip), vehicle: Klucel (hydroxypropylcellulose) (HPC) 105 % of control | dose: 15.0 mg/kg/injection, schedule: Q01DX001 (ip), vehicle: carboxymethylcellulose (CMC) 101 % of control | dose: 15.0 mg/kg/injection, schedule: Q04DX002 (ip), vehicle: Klucel (hydroxypropylcellulose) (HPC) 99 % of control | dose: 30.0 mg/kg/injection, schedule: Q01DX001 (ip), vehicle: carboxymethylcellulose (CMC) 114 % of control | dose: 30.0 mg/kg/injection, schedule: Q04DX002 (ip), vehicle: Klucel (hydroxypropylcellulose) (HPC) 96 % of control

OCC(F)(F)C(F)(F)C(F)(F)CO
inactive: dose: 100.0 mg/kg/injection, schedule: Q01DX009 (ip), vehicle: saline 87 % of control | dose: 200.0 mg/kg/injection, schedule: Q01DX009 (ip), vehicle: saline 90 % of control | dose: 400.0 mg/kg/injection, schedule: Q01DX009 (ip), vehicle: saline 100 % of control

OCC(O)C(O)C(O)C(O)C(c1ccc(Br)cc1)c1ccc(Br)cc1 (centres undefined)
inactive: dose: 50.0 mg/kg/injection, schedule: Q01DX001 (ip), vehicle: saline 106 % of control | [11] 106 % of control | [12] 101 % of control | [13] 98 % of control

OC(/C=C/C(O)c1ccccc1)c1ccccc1 (centres undefined)
inactive: dose: 12.5 mg/kg/injection, schedule: Q01DX009 (ip), vehicle: Klucel (hydroxypropylcellulose) (HPC) 97 % of control | [1] 95 % of control | dose: 25.0 mg/kg/injection, schedule: Q01DX009 (ip), vehicle: Klucel (hydroxypropylcellulose) (HPC) 98 % of control | [2] 100 % of control | dose: 50.0 mg/kg/injection, schedule: Q01DX009 (ip), vehicle: Klucel (hydroxypropylcellulose) (HPC) 98 % of control | [3] 94 % of control

O=C1c2ccccc2-c2ccc([N+](=O)[O-])c(Br)c21
inactive: dose: 100.0 mg/kg/injection, schedule: Q01DX001 (ip), vehicle: carboxymethylcellulose (CMC) 106 % of control | dose: 200.0 mg/kg/injection, schedule: Q01DX001 (ip), vehicle: carboxymethylcellulose (CMC) 106 % of control | dose: 400.0 mg/kg/injection, schedule: Q01DX001 (ip), vehicle: carboxymethylcellulose (CMC) 102 % of control

Cc1ccc(NS(=O)(=O)c2ccccc2)cc1
inactive: [15] 106 % of control | [8] 104 % of control | [7] 93 % of control | [16] 101 % of control | [9] 100 % of control | dose: 200.0 mg/kg/injection, schedule: Q04DX003 (ip), vehicle: saline 101 % of control | dose: 400.0 mg/kg/injection, schedule: Q01DX009 (ip), vehicle: saline with Tween-80 103 % of control | [10] 104 % of control | dose: 400.0 mg/kg/injection, schedule: Q04DX003 (ip), vehicle: saline 106 % of control

CCOC(=O)COCC(=O)OCC
inactive: [4] 98 % of control | [5] 98 % of control | [6] 102 % of control

O=C(O)C1CCCCC1C(=O)NCc1ccco1 (centres undefined)
inactive: dose: 100.0 mg/kg/injection, schedule: Q01DX009 (ip), vehicle: Klucel (hydroxypropylcellulose) (HPC) 95 % of control | dose: 200.0 mg/kg/injection, schedule: Q01DX009 (ip), vehicle: Klucel (hydroxypropylcellulose) (HPC) 96 % of control | dose: 400.0 mg/kg/injection, schedule: Q01DX009 (ip), vehicle: Klucel (hydroxypropylcellulose) (HPC) 88 % of control

CCOC(=O)Nc1ccccc1C
inactive: dose: 100.0 mg/kg/injection, schedule: Q04DX003 (ip), vehicle: Klucel (hydroxypropylcellulose) (HPC) 95 % of control | dose: 200.0 mg/kg/injection, schedule: Q04DX003 (ip), vehicle: Klucel (hydroxypropylcellulose) (HPC) 100 % of control | dose: 222.0 mg/kg/injection, schedule: Q01DX Z (ip), vehicle: methylcellulose (MC) 101 % of control | dose: 333.0 mg/kg/injection, schedule: Q01DX Z (ip), vehicle: methylcellulose (MC) 101 % of control | dose: 400.0 mg/kg/injection, schedule: Q04DX003 (ip), vehicle: Klucel (hydroxypropylcellulose) (HPC) 94 % of control

COc1c2c(cc3c1C1(O)Cc4ccc5c(c4C[N+]1(C)CC3)OCO5)OCO2 (centres undefined)
inactive: [11] 95 % of control | [12] 91 % of control

O=C(Nc1ccccc1)OCC(CN1CCCCC1)OC(=O)Nc1ccccc1 (centres undefined)
inactive: dose: 12.5 mg/kg/injection, schedule: Q01DX009 (ip), vehicle: saline with Tween-80 97 % of control | dose: 25.0 mg/kg/injection, schedule: Q01DX009 (ip), vehicle: saline with Tween-80 99 % of control | [14] 99 % of control | [15] 86 % of control | [8] 98 % of control | [16] 91 % of control | [9] 90 % of control

O=C(N/N=C\c1cc(Br)cc(Br)c1O)N/N=C/c1cc(Br)cc(Br)c1O
inactive: [4] 108 % of control | [5] 95 % of control | [6] 92 % of control

CCCCn1c(C)cc2c(c1=O)COC(=O)C2(O)CC (centres undefined)
inactive: dose: 2.5 mg/kg/injection, schedule: Q04DX003 (ip), vehicle: saline 101 % of control | dose: 5.0 mg/kg/injection, schedule: Q04DX003 (ip), vehicle: saline 98 % of control | dose: 10.0 mg/kg/injection, schedule: Q04DX003 (ip), vehicle: saline 100 % of control | dose: 20.0 mg/kg/injection, schedule: Q04DX003 (ip), vehicle: saline 96 % of control | dose: 40.0 mg/kg/injection, schedule: Q04DX003 (ip), vehicle: saline 94 % of control
